The subject of one data set is C. albicans. The experiment in a line: Broth microdilution MIC assay. The note with it: Candida albicans, 24 hours, 37° C., no visible growth. The data set is classed as cell-based. Here is the method: (§1) Exemplary methods for antifungal activity assays are as follows:
C. albicans was cultured in a similar manner to S. cerevisiae except both liquid and solid cultures were incubated at 37° C.
The protocol for the broth microdilution assay was adapted from the Clinical and Laboratory Standards Institute document M27-A2. Clinical and Laboratory Standards Institute. Reference Method for Broth Dilution Antifungal Susceptibility Testing, M27-A2, Approved Standard 2nd Ed. Vol. 22, Number 15, 2002. 50 mL of YPD media was inoculated and incubated overnight at either 30° C. (S. cerevisiae) or 37° C. (C. albicans) in a shaker incubator. The cell suspension was then diluted with YPD to an OD600 of 0.10 (˜5×10^5 cfu/mL) as measured by a Shimadzu (Kyoto, Japan) PharmaSpec UV-1700 UV/Vis spectrophotometer. The solution was diluted 10-fold with YPD, and 195 μL aliquots of the dilute cell suspension were added to sterile Falcon (Franklin Lakes, N.J.) Microtest 96-well plates in triplicate. Compounds were prepared either as […] (AmB, C2′deOAmB) or 2 mM (AmdeB) stock solutions in DMSO and serially diluted to the following concentrations with DMSO: 1600, 1200, 800, 400, 320, 240, 200, 160, 120, 80, 40, 20, 10 and 5 μM. 5 μL aliquots of each solution were added to the 96-well plate in triplicate, with each column representing a different concentration of the test compound. […]

For another data set, the system named is S. cerevisiae. The experiment in a line: Broth microdilution MIC assay. The data set is classed as cell-based. The settings on record: Saccharomyces cerevisiae, 24 hours, 30° C., no visible growth. The protocol:
as §1
S. cerevisiae was maintained with yeast peptone dextrose (YPD) growth media consisting of 10 g/L yeast extract, 20 g/L peptone, 20 g/L dextrose, and 20 g/L agar for solid media. The media was sterilized by autoclaving at 250° F. for 30 min. Dextrose was subsequently added as a sterile 40% w/v solution in water (dextrose solutions were filter sterilized). Solid media was prepared by pouring sterile media containing agar (20 g/L) onto Corning (Corning, N.Y.) 100×20 mm polystyrene plates. Liquid cultures were incubated at 30° C. on a rotary shaker and solid cultures were maintained at 30° C. in an incubator.
The protocol for the broth microdilution assay was adapted from the Clinical and Laboratory Standards Institute document M27-A2. Clinical and Laboratory Standards Institute. Reference Method for Broth Dilution Antifungal Susceptibility Testing, M27-A2, Approved Standard 2nd Ed. Vol. 22, Number 15, 2002. 50 mL of YPD media was inoculated and incubated overnight at either 30° C. (S. cerevisiae) or 37° C. (C. albicans) in a shaker incubator. The cell suspension was then diluted with YPD to an OD600 of 0.10 (˜5×10^5 cfu/mL) as measured by a Shimadzu (Kyoto, Japan) PharmaSpec UV-1700 UV/Vis spectrophotometer. […]

The nature of data set [1]: ITC titration with sterol-free POPC LUVs. The data set is classed as binding. The note with it: no sterol LUVs, 600 μM compound. The protocol:
Isothermal Titration calorimetry (ITC)
In an optimized isothermal titration calorimetry (ITC)-based assay, an aqueous solution of AmB was titrated with a suspension of large unilamellar vesicles (LUVs) comprised of only 1-palmitoyl-2-oleoyl-sn-glycero-3-phosphocholine (POPC), and the net exotherm was recorded. The titration was repeated using POPC LUVs containing 10% ergosterol. […] The titration was repeated using C2′epiAmB. […] The ITC assay was also conducted with cholesterol in place of ergosterol.
Experiments were performed using a NanoITC isothermal titration calorimeter (TA Instruments, Wilmington, Del.). Solutions of the compounds to be tested were prepared by diluting a 60.0 mM stock solution of the compound in DMSO to 600 μM with K buffer (5.0 mM HEPES/KHEPES, pH=7.4). The final DMSO concentration in the solution was 1% v/v. Large unilamellar vesicles comprised of only 1-palmitoyl-2-oleoyl-sn-glycero-3-phosphocholine (POPC LUVs) were prepared and phosphorus and ergosterol content was quantified as described below. […]
NanoAnalyze software (TA Instruments) was used for baseline determination and integration of the injection heats, and Microsoft Excel was used for subtraction of dilution heats and the calculation of overall heat evolved. […] By this method, the overall heat evolved during the experiment was calculated using the following formula: […]

The test system of a further data set is healthy mice. The experiment in a line: Acute toxicity, single intravenous administration, lethality. The data set is classed as in vivo, mouse. Here is the method:
FIG. 8 is a graph depicting lethality in healthy mice resulting from single intravenous administrations in the doses indicated of AmB or C2′epiAmB.
In a separate experiment, acute toxicity was determined by single intravenous administration of AmB or C2′epiAmB to healthy mice, followed by monitoring for lethality.

Results on 1 compound are retold here after patent publication US9738677B2, “Amphotericin B derivative with reduced toxicity” (priority 2014, dated 2017).

In brackets after ≈: the same amount, converted by molar mass. Entries after “also recorded” stand apart in the source; their conditions may differ.

On to `C[C@@H]1[C@H](O)[C@@H](C)/C=C/C=C/C=C/C=C/C=C/C=C/C=C/[C@H](O[C@@H]2O[C@H](C)[C@@H](O)[C@H](N)[C@H]2O)CC2O[C@](O)(C[C@@H](O)C[C@@H](O)[C@H](O)CC[C@@H](O)C[C@@H](O)CC(=O)O[C@H]1C)C[C@H](O)[C@H]2C(=O)O` [C2′epiAmB], for which the MIC against C. albicans and against S. cerevisiae was 2 µM (≈ 1.85 µg/mL) in each case. Besides, the Total exotherm in data set [1] is -6.70 ± 0.11 µcal. In addition, in the data set on healthy mice (healthy mice, single intravenous doses up to 16 mg/kg), the Lethality result is “no deaths observed”. Further, in the data set with healthy mice (mice), the “Acute toxicity compared to AmB (in words)” value is listed as “significantly less toxic; also recorded: substantially less toxic to mice”.
